Measurements taken from patent publication US11632953B2, “Method for controlling hematophagous or sap-feeding arthropods” (Board of Supervisors of Louisiana State University and …, priority 2016, dated 2023).

How the values were obtained:
[1] = test system: Drosophila melanogaster; test: whole plant or invertebrate; conditions: 100 μM
Experimental: A capillary feeding assay (CAFE) was used to quantify the volume of sucrose solution consumed over a period of time; it was performed essentially as described in W. W. Ja, G. B. Carvalho, E. M. Mak, N. N. de la Rosa, A. Y. Fang, J. C. Liong, T. Brummel, S. Benzer, Prandiology of Drosophila and the CAFE assay. Proceedings of the National Academy of Sciences of the United States of America 104, 8253-8256 (2007); published online EpubMay 15 (10.1073/pnas.0702726104). […] One adult fly was placed into a 2 mL glass vial with a screw lid that was pierced with a glass microcapillary tube having a truncated 200-0 pipette tip. The microcapillary tubes contained 5% (wt/vol) sucrose solution with a 5 μl mineral oil overlay to minimize evaporation. […] Concentrations of 100 μM dopamine and 100 μM fluphenazine were used to determine the influence of those agents on fly feeding. […] All dead flies were excluded from all time points of the study regardless of the time of death. Mean (n>25) values are shown in all figure panels, depicting total consumption.
Times spent feeding in Kir1 and GFP genetic knockdown studies were compared to control values for each day using one-way ANOVA with a Dunns multiple comparisons post-test. Statistical significance for all studies was P<0.05.

[2] = test system: isolated tick salivary gland; test: fluid secretion (salivation) in the isolated tick salivary gland, modified Ramsay assay; design: species or system Amblyomma americanum; conditions: for reduction of salivary output / saliva secretion compared to control / Effect on Salivation at 10 minutes (reduction): isolated tick salivary gland
[3] = test system: Aphis gossypii; test: aphid feeding on treated cotton leaves, electrophenegraph technique; type: in vivo; conditions: barium chloride at 300 micromolar
Experimental: FIGS. 14(A) and (B) depict measurements of aphid (Aphis gossypi) feeding on cotton leaves, as measured through the electrophenegraph technique; on control leaves and on leaves treated with the Kir inhibitor barium, respectively.
In aphids, a specific Kir channel blocker (barium chloride at 300 micromolar) was coated onto leaf tissue, and the feeding behavior of the adult aphid was analyzed through the classical electrophenegraph technique.

[4] = test system: isolated tick salivary gland; test: ion secretion in saliva of the isolated tick salivary gland; design: species or system Amblyomma americanum
[5] = molecular target: T1, AnKir1 (Anopheles gambiae, UniProt A0A075M2J8); test: thallium (Tl+) flux assay; type: cell-based; conditions: SAR libraries; read-out: AnKir1 IC50
T1 sequence (A0A075M2J8 1-555): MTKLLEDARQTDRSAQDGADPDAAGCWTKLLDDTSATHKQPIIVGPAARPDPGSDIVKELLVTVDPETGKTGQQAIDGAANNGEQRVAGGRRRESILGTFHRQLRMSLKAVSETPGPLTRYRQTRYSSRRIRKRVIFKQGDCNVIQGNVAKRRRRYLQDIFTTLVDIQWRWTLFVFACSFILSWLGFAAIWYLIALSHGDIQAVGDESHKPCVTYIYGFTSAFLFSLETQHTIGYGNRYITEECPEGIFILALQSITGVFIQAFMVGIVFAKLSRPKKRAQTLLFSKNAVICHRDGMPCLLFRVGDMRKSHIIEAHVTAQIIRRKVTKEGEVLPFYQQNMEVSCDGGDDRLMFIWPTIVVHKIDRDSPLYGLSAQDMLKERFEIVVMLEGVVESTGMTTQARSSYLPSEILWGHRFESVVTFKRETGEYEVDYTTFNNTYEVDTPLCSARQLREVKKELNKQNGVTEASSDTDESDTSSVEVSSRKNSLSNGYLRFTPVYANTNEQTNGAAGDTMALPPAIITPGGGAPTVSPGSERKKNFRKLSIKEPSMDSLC
Experimental: The thallium flux assay is an in vitro method of measuring conductance through a potassium ion channel. Potassium channels are also permeable to thallium ions. The modulation of a K^+ channel will thus increase or decrease thallium ion flow through the channel and thus, alter the observed fluorescence of a thallium-specific indicator dye.
After 1 hr incubation at room temperature, the dye-loading solution was washed from the plates and replaced with 20 μL/well of assay buffer. The plates were transferred to a Hamamatsu Functional Drug Screening System 6000 (FDSS6000; Hamamatsu, Tokyo, Japan), where 20 μL/well of each of the test compounds in assay buffer was added and allowed to incubate with the cells for 20 min. After incubation, a baseline recording was collected at 1 Hz for 10 s (excitation 470±20 nm, emission 540±30 nm); a thallium stimulus buffer was then added (10 μL/well), and data were then collected for an additional 4 min. […] To ensure the small-molecule vehicle DMSO had no direct effect on AnKir1-dependent Tl^+ flux, the assay's tolerance to different doses of DMSO was evaluated. The robustness and reproducibility of the assay was determined by comparing Tl^+ flux through tetracycline-induced and tetracycline-free cells. The Z′ value was calculated as:
Z′=1−(3SDp+3SDn)/|meanp+meann| where SD is standard deviation, and p and n are control and uninduced flux values, respectively. To compare the effect of DMSO on AnKir1-mediated Tl^+ flux, a one-way ANOVA was performed with a Tukey's multiple comparison test. Prism software (GraphPad Software) was used to generate CRC from Tl^+ flux. Half-inhibition concentration (IC50) values were calculated from fits using a four parameter logistic equation.
Test compounds were transferred to daughter, 384-well polypropylene plates (Greiner Bio-One, Monroe, N.C.) with an Echo555 liquid handler (Labcyte, Sunnyvale, Calif.), and then diluted into assay buffer to generate a 2× stock in 0.6% DMSO (0.3% final). […] Concentration-response curves (CRCs) were generated by screening compounds at 3-fold dilution series (1 nM-30 μM).
Tl^+ flux data were analyzed using Excel (Microsoft Corp, Redmond, Wash.) with XLfit add-in (IDBS, Guildford, Surrey, UK), OriginPro (Origin Lab, Northampton, Mass.), and GraphPad Prism (GraphPad Software, San Diego, Calif., USA) software. Raw data were opened in Excel and each data point in a given trace was divided by the first data point from that trace (static ratio) followed by subtraction of data points from control traces generated with vehicle controls. The slope of the fluorescence increase beginning 5 s after Tl^+ addition and ending 15 s after Tl^+ addition was calculated.
To perform Tl+ flux assays, stably transfected T-Rex-HEK-293 cells expressing AnKir1 channels were cultured overnight in 384-well plates (20,000 cells/20 μL/well), black-walled, clear-bottomed BD Pure Coat amine-coated plates (BD, Bedford, Mass.) with a plating media containing DMEM, 10% dialyzed FBS and 1 μg/mL tetracycline. […] Following 1 hr incubation at room temperature, the dye-loading solution was washed from the plates and replaced with 20 μL/well of assay buffer.

[6] = molecular target: hKir2.1 (Homo sapiens (Human), UniProt P63252); test: thallium (Tl+) flux assay; type: cell-based; conditions: SAR libraries; read-out: hKir2.1 IC50
Sequence of hKir2.1 (P63252 whole entry): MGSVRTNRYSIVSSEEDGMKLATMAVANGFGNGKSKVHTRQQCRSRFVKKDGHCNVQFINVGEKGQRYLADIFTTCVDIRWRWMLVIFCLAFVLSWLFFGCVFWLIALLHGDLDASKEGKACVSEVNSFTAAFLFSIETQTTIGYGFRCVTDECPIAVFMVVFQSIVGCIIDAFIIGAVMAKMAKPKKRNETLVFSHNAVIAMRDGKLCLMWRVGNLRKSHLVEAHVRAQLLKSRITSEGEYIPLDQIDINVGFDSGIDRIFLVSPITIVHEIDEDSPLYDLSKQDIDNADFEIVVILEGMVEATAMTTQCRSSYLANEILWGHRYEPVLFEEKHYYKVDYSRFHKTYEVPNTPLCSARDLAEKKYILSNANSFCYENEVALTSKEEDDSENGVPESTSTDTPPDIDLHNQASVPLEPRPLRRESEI

[7] = test system: An. gambiae; conditions: cited from earlier work; for Resistance Ratio (Akron compared to G3 strain): ED50 Akron/ED50 G3
[8] = test system: honey bees (Apis mellifera); test: acute topical toxicity in adult honey bees; type: in vivo; conditions: 48 h, VU041 1 mg/bee (~10 μg/mg), bifenthrin 0.1 μg/bee
Experimental: Frames of late-stage honeybee (A. mellifera) pupae were taken from four colonies at The Ohio State University Honey Bee Lab in Wooster, Ohio, and maintained in a dark humid incubator at 34° C. (Darwin Chambers Co., St. Louis, Mo., model H024) until adult bees emerged. New adults were brushed from frames daily, placed in wooden screen cages (21×14×12 cm), and provided with 1:1 (w/w) sucrose in water.
Acute toxicity experiments in adult bees were performed as follows: Twenty-four hours after emergence, adult honey bees in cages were anaesthetized with carbon dioxide, divided into groups of approximately 20 bees each, and placed in plastic-coated paper cups (177 cm^3; UNIQ Paper Yogurt Cup, Frozen Dessert Supplies, Gilbert, Ariz.) covered with cotton cheesecloth. […] As a positive control, some bees were treated with 3 μl of bifenthrin (0.1 μg/μl). Negative control bees were treated with 3 μl of solvent. Applications were made using a 20 μl micropipette (Fisherbrand Finnpipette F2, Fisher Scientific, Pittsburgh, Pa.) with a disposable plastic tip. […] Toxicity to honey bees was recorded at 48 h, rather than the 24 h used for mosquitoes, to allow for the possibility of delayed toxicity due to the larger body size of the bee. Bees showing no movement 48 h after treatment were scored as dead.

[9] = test system: An. gambiae; test: topical toxicity bioassay in adult female An. gambiae; type: in vivo, Anopheles gambiae; conditions: 24 h
Experimental: Topical toxicity bioassays were performed on non-blood-fed adult female mosquitoes. The mosquitoes were chilled on ice for 1-3 minutes, during which 200 nL of compound (dissolved in 95% ethanol) was applied onto the abdomen of each insect with a handheld Hamilton® micro-applicator. […] […] The three resulting ED50 values were averaged. An ethanol-only treatment was included in each experiment as a negative control. Treated mosquitoes were transferred to small cages with access to 10% sucrose and held under rearing conditions for 24 h. Mortality was recorded at 24 h.

[10] = molecular target: T1, AnKir1; test: whole-cell patch clamp electrophysiology; type: cell-based; conditions: whole-cell patch clamp, HEK-293T cells
Experimental: Patch electrodes were pulled from silanized 1.5 mm outer diameter borosilicate microhematocrit tubes using a P-1000 Flaming/Brown micropipette puller (Sutter Instrument, Novato Calif., USA). Electrode resistance ranged from 2-4 MΩ. Whole-cell currents were recorded under voltage-clamp conditions using an Axopatch 200B amplifier (Molecular Devices, Sunnyvale, Calif.). Electrical connections to the amplifier used Ag/AgCl wires and 3 M KCl/agar bridges. Electrophysiological data were collected at 5 kHz and filtered at 1 kHz. Data acquisition and analysis were performed using pClamp 9.2 software (Axon Instruments).
Transiently transfected HEK-293T cells expressing AnKir1 were voltage-clamped in the whole-cell configuration of the patch clamp technique. The extracellular bath solution contained (in mM): 135 NaCl, 5 KCl, 2 CaCl2), 1 MgCl2, 5 glucose, 10 HEPES free acid, pH 7.4, 290 mOsm/kg H2O. The pipette solution contained (in mM): 135 KCl, 2 MgCl2, 1 EGTA, 10 HEPES free acid, 2 Na2ATP (Roche, Indianapolis, Ind.), pH 7.3, 275 mOsm. Cells were voltage clamped at −75 mV, stepped to −120 mV for 200 msec, and then ramped to 120 mV at a rate of 2.4 mV/msec. Concentration-response curves (CRCs) were constructed by measuring the effects of increasing doses of inhibitors on AnKir1 currents at −120 mV. All recordings were made at room temperature (20-23° C.).

[11] = test system: Aedes aegypti mosquitoes; test: mosquito blood feeding with compound exposure; type: in vivo; conditions: compound added to blood
Source text: Tolbutamide and glybenclamide are inhibitors of ATP-gated Kir channels.

## NCCc1ccc(O)c(O)c1 [Dopamine, reference compound]
[1]; 1 day PE
  increase in sucrose consumption vs control: 1.7 fold
[1]; 2 days PE
  increase in sucrose consumption vs control: 1.3 fold
[1]; 3 days PE
  increase in sucrose consumption vs control: 1.2 fold
[1]; 4 days PE
  increase in sucrose consumption vs control: 1.4 fold

## [Ba+2].[Cl-].[Cl-] [barium chloride]
[2]; control 270 nl/5 min, preliminary
  transepithelial fluid secretion: 141 nl/5 min
[2]
  reduction of salivary output / saliva secretion compared to control: approximately 60%
[3]
  feeding phases (egestion, salivation, ingestion): inability of treated aphids to salivate
[4]
  K+ and Na+ ion secretion rates in salivary droplets: significantly reduced

## O=C(Cn1nc(C(F)(F)F)c2c1CCCC2)N1CCCC2CCCCC21 (stereo not shown) [Compound 9]
[5]
  IC50: 6.7 µM
[6]
  IC50: > 30 µM

## O=C(Cn1nc(C(F)(F)F)c2c1CCCC2)N1CCCC(c2ccccc2)C1 (stereo not shown) [Compound 12]
[5]
  IC50: 5.6 µM
[6]
  IC50: > 30 µM

## O=C(NCCO[N+](=O)[O-])c1cccnc1 [nicorandil]
[4]
  cations (K+ and Na+) concentrations excreted from the salivary glands: significant reduction

## CC(NC(=S)Nc1ccncc1)C(C)(C)C (stereo not shown) [DRS-1]
[2]
  Effect on Salivation at 10 minutes (reduction): Reduced ~80%

## CC1(C)C(C=C(Cl)Cl)C1C(=O)OCc1cccc(Oc2ccccc2)c1 (stereo not shown) [Permethrin]
[7]
  Resistance Ratio (Akron compared to G3 strain): 33 fold
[7]; topical, Akron strain, from reference 21
  ED50, Akron Strain: 0.001 µg/mg
[7]; topical, G3 strain, from reference 21
  ED50, G3 Strain: 3e-07 µg/mg

## CC(C)(C)CNC(=C[N+](=O)[O-])Nc1ccncc1 [DRS-4]
[2]
  Effect on Salivation at 10 minutes (reduction): Reduced ~83%

## CC1CC(C)CN(C(=O)Cn2nc(C(F)(F)F)c3c2CCCC3)C1 (stereo not shown) [Compound 13]
[5]
  IC50: 4.5 µM
[6]
  IC50: > 30 µM

## Cc1c(COC(=O)[C@@H]2[C@H](/C=C(\Cl)C(F)(F)F)C2(C)C)cccc1-c1ccccc1 (racemic) [bifenthrin, reference compound]
[8]
  mortality of adult honey bees: 100%

## O=C1CCCc2c1ccn2CC(=O)N1CCCc2ccccc21 [Compound 4]
[5]
  IC50: 12.1 µM
[6]
  IC50: > 30 µM

## O=C(Cn1nc(C(F)(F)F)c2c1CCCC2)N1CCOc2ccccc21 [Compound 14]
[5]
  IC50: 4.6 µM

## O=C(Cn1ncc2c1CCOC2)N1CCCc2ccccc21 [VU730]
[5]
  IC50: 2.4 µM
[9]; adult females
  topical toxicity: ED50 similar to that for VU041
[9]; topical, G3 strain, synergists 500 ng/insect four hours prior
  ED50 (95% confidence limits), G3 Strain: 2.4 (2.1-2.9) A μg/mg
[10]
  IC50: 0.717 µM
[6]
  IC50: > 30 µM

## O=C(CN1CCCc2ccccc21)N1CCCc2ccccc21 [Compound 6]
[5]
  IC50: 8 µM

## CCCCNC(=O)NS(=O)(=O)c1ccc(C)cc1 [tolbutamide]
[11]
  reduction of total volume of blood consumed: 99%

## CNC(=O)Oc1ccccc1OC(C)C [propoxur]
[7]
  Resistance Ratio (Akron compared to G3 strain): 101 fold

## CNCCC(Oc1ccc(C(F)(F)F)cc1)c1ccccc1 (stereo not shown) [fluoxetine]
[2]
  reduction of salivary output / saliva secretion compared to control: 98%

## CC(NC(=NC#N)Nc1cccnc1)C(C)(C)C (stereo not shown) [DRS-3]
[2]
  Effect on Salivation at 10 minutes (reduction): Reduced ~100%
